Key:
[1] = test system: TCF/LEF promoter activity in PC-3 cells; experiment: TCF/LEF luciferase reporter assay (pGL3-OT/pGL3-OF); format: cell-based; details: 50 nM CT
Method: FIG. 28 depicts effect of CT on TCF/LEF promoter activity in PC-3 cells with various compounds added with CT. Cells were seeded into 6-well plates and transfected with the pGL3-OT luciferase/pRL-tK plasmids or pGL3-OF-luciferase/pRL-TK plasmids. The cells were then incubated in complete medium for 48 h, after which they were serum-starved for 16 h. The cells were then treated with CT and/or PMH compounds, and the cell lysates analyzed for luciferase activity. The results are expressed as relative light units (RLU) after normalization with Renilla luciferase activity. The experiment was repeated three separate times, and results expressed as means±S.E.M.
Certain hydantoin-like molecules isolated from sea sponge have been identified that could inhibit prostate cell metastasis (Shah et al., 2009; Mudit et al., 2011). Disruption of junctional complex stabilizes intracellular β-catenin, leading to its translocation in the nucleus, where it can bind to its partner LEF-1 (lymphocyte enhancer binding factor-1) to transactivate target genes. The transcription of TCF/LEF genes can be quantitated by using luciferase-based reporter plasmids, pGL3-OT and pGL3-OF, the improved version of the Topflash and Fopflash vectors (Shah et al., 2009). This assay can be used to comparatively evaluate junction disrupting activity of multiple compounds in a single assay. […] The two compounds, MRM-6 and MRM-4, derivatives of PMH whose structures are shown below, were obtained from Dr. K. A. El Sayed.

PC-3-CTR-wt cells = experiment: Matrigel in vitro invasion assay; format: cell-based; details: 50 nM CT, 48 h
Method: Invasion experiments were conducted in Matrigel™ invasion chambers as previously described (Sabbisetti et al., 2005).
CT increases invasiveness, and even induces an invasive phenotype in non-invasive prostate cancer cells. The role of PDZ-binding motif in CT-stimulated invasion was examined. FIG. 2C depicts CTR-C PDZ-binding motif mutation and effects on cell invasion. PC-3V, PC-3 CTRwt and PC-3 CTRΔESS cells were added to upper insert of invasion chambers with or without 50 nM CT, and cells that passed through the Matrigel™ barrier were counted after 48 h. The results are expressed as mean number of invaded cells per 400× field ±SEM (n=6; *p<0.05 (PC-3V v PC-3CTR-wt); $ p<0.05 (PC-3CTR-wt v PC-3CTRΔESS); $$-p<0.05 (PC-3CTRwt+CT v PC-3CTRΔESS+CT) (one-way ANOVA and Newman-Keul's test)). Expression of CTRwt in PC-3 cells increased invasion by 2.5-fold (FIG. 2C).
As shown above, CTR binds to ZO-1 through PDZ interaction (i.e. PDZ ligand on C-tail of CTR binds to the PDZ domain of ZO-1). To attenuate this binding, ZO-1 was saturated with a small C-terminal peptide of CTR sequence containing the PDZ-binding motif. Since ZO-1 is an intracellular membrane protein, the interfering peptide was delivered inside the plasma membrane. It has been shown that trans-activating transcriptional activator (TAT) protein (86-mer polypeptide) from HIV-1 enters mammalian cells when added to the surrounding media (Frankel et al., 1988; Green et al., 1989). Certain small regions of such proteins (10-16-mers) called protein transduction domains (PTDs), also efficiently traverse biological membranes (Elliott et al., 1997). Therefore, a fusion peptide Pep 1 was synthesized of TAT-peptide sequences of HIV virus and CTR-C(N-[…]-C (SEQ ID NO:2), CTR-C sequence underlined). The first experiment was to see if Pep I binds to ZO-1 in reversible fashion. For this, amino acid Y in Pep I was labeled with ^125I, and the binding with ZO-1 analyzed in the presence/absence of unlabeled Pep I (1000×; 20 μM). PC-3CTR-ZO-1-MYC cells were first incubated with unlabeled Pep I or control peptide (20 μM) for 5 min. The cells were then incubated with ^125I-pep I or C for 25 min. The cells were then washed in IP buffer, treated with DSP, and lysed. ZO-1 IPs were obtained, fractionated on SDS-PAGE, and autoradiographed. […] Next, whether Pep I competes with CTR for ZO-1 binding was tested. For this, PC-3-CTR-wt cells were treated with CT (50 nM) and or Pep I (50 μM) for 15 min. The CTR IPs were then immunoblotted and probed for ZO-1 immunoreactivity. […] Next, the biological impact of this phenomenon was examined by testing the effect of Pep I on CTR-stimulated invasion.
The binding of ZO-1 and CTR can be attenuated by saturating ZO-1 with a small C-terminal peptide of CTR sequence containing the PDZ ligand. Since ZO-1 is an intracellular membrane protein, the interfering peptide must penetrate plasma membrane to interact with ZO-1. As discussed above, fusion peptides of small TAT peptides (12-mer) and six (Pep I) or eight amino acids (Pep II) of C-terminal of CTR were synthesized. Control peptides were TAT peptides (12-mer) containing random amino acid sequence of equivalent size (6-mer). […] Thus, these two peptides (sequences given below) could be used therapeutically to attenuate or inhibit metastasis in cancerous cells.

calcitonin [CT]
increase in luciferase activity (RLU) [1]: over 50 fold
additional increase in invasion (PC-3-CTR-wt cells): 2.5 fold

— patent US9765115B2, “Inhibitors of metastasis, methods of generating such inhibitors and their therapeutic applications” (Board of Supervisors of Louisiana State University acting …, priority 2011, dated 2017)
